≈ marks a conversion by molar mass, not a printed value. Values belong to the molecule of their own block, whether it stands above or below them.
Experiments:
[1] = test system: Klebsiella pneumoniae ATCC; assay: Planktonic susceptibility (MIC/MBC), 96-well broth microdilution; assay type: cell-based; conditions: K. pneumonia; for MIC: planktonic, overnight 37°C in MHB
Description: (§1) All bacterial strains subjected to testing had been stored at −70°C prior to the experiment. The experiment commenced by streaking small amounts of the frozen bacterial samples onto Muller-Hinton agar (MHA) culture medium (BD Bacto, Oxoid, Basingstoke, UK Cat# X296B) and allowing for overnight incubation. Bacteria were re-cultured on MHA plates as required to confirm colony morphology and lack of contamination. Strains tested were P. aeruginosa ATCC 27853, E. coli ATCC 25922, Staphylococcus aureus ATCC 25923, MRSA ATCC 33591, S. epidermidis ATCC 12228, Klebsiella pneumoniae ATCC, P. mirabilis ATCC 35659, and 10 clinical isolates of MRSA from Foothills Hospital, Calgary, Canada. To prepare for susceptibility testing, a protocol modified from Lemire et al was used ([28]). MHB was swab-inoculated from MHA colonies and shake-incubated until turbid. Dilution of the broth with 0.9% saline was performed as necessary to match a 1.0 McFarland standard.
(§2) MIC and MBC assessments were conducted on all bacterial strains using 96-well microtiter plates. To prepare the wells for bacteria, serial dilutions of the antibacterial agents were carried out along the rows of two microtiter plates. The antibacterials were 2-fold diluted with Mueller-Hinton broth (MHB) in each column, reaching a volume of 75 µL. The 1.0 McFarland standard was diluted 15-fold in MHB, and 75 µL of inoculum was added to the wells treated with antibacterials, resulting in a total volume of 150 µL. The microtiter plates were covered and then shake-incubated overnight at 150 rpm and 37°C. MIC was determined based on visible bacterial growth. In cases of antibacterial opacity or ambiguous results, streaking of well cultures on MHA, overnight incubation, and subsequent comparison with controls were performed. MBC was determined by transferring 3 µL of culture from all MIC microtiter plate wells to 147 µL of Mueller-Hinton broth in fresh plates. These plates were shake-incubated overnight at 150 rpm and 37°C, and bacterial growth was visually inspected.

P. mirabilis ATCC 35659 = assay: as above; assay type: cell-based; conditions: Proteus mirabilis; for MBC: ATCC35659; for MIC: ATCC35659, planktonic, overnight 37°C in MHB
Description: as §1, §2

[2] = test system: Staphylococcus aureus ATCC 25923; assay: as above; assay type: cell-based; conditions: Staphylococcus aureus, ATCC25923, S. aureus; for MIC: planktonic, overnight 37°C in MHB
Description: as §1, §2

MRSA ATCC 33591 = assay: as above; assay type: cell-based, methicillin-resistant S. aureus; conditions: Staphylococcus aureus, MRSA reference strain; for MIC: planktonic, overnight 37°C in MHB
Description: as §1
as §2, with “In cases of antibacterial opacity or ambiguous results, streaking of well cultures on MHA, overnight incubation, and subsequent comparison with controls were performed.” left out

[3] = test system: S. epidermidis ATCC 12228; assay: as above; assay type: cell-based, Staphylococcus epidermidis; conditions: Staphylococcus epidermidis; for MBC: ATCC12228; for MIC: ATCC12228, planktonic, overnight 37°C in MHB
Description: as §1, §2

[4] = test system: 10 clinical isolates of MRSA from Foothills Hospital, Calgary; assay: Planktonic susceptibility (MIC/MBC) of MRSA clinical isolates; assay type: cell-based, methicillin-resistant S. aureus; conditions: Staphylococcus aureus
Description: as §1
as §2, with “In cases of antibacterial opacity or ambiguous results, streaking of well cultures on MHA, overnight incubation, and subsequent comparison with controls were performed.” left out

SMILES: O=C(Nc1ccc(Cl)c(Cl)c1)Nc1ccc2nnsc2c1 [B]
- MBC [1]: > 5000 µM
- MIC [1]: > 5000 µM
- MBC (P. mirabilis ATCC 35659): > 5000 µM
- MIC (P. mirabilis ATCC 35659): > 5000 µM
- MIC [2]: 9800 µM (≈ 3320 µg/mL)
- MIC (MRSA ATCC 33591): 4900 µM (≈ 1660 µg/mL)

SMILES: O=C(Nc1ccc2nnsc2c1)Nc1cccc(S(F)(F)(F)(F)F)c1Cl [EBP-24, 3-(1,2,3-benzothiadiazol-6-yl)-1-(2-chloro-3-pentafluoro-λ^6-sulfanyl)urea]
- MBC [1]: > 5000 µM
- MIC [1]: > 5000 µM
- MBC (P. mirabilis ATCC 35659): > 5000 µM
- MIC (P. mirabilis ATCC 35659): > 5000 µM
- MBC [2]: 78000 µM (≈ 33600 µg/mL)
- MIC [2]: 76 µM (≈ 32.7 µg/mL)
- MIC (MRSA ATCC 33591): 150 µM (≈ 64.6 µg/mL)

SMILES: O=C(Nc1cc(S(F)(F)(F)(F)F)ccc1Cl)Nc1cc(S(F)(F)(F)(F)F)ccc1Cl [EBP-36, 1,3-bis(2-chloro-5-pentafluoro-λ^6-sulfanyl)urea]
- MBC [1]: > 5000 µM
- MIC [1]: > 5000 µM
- MBC (P. mirabilis ATCC 35659): > 5000 µM
- MIC (P. mirabilis ATCC 35659): > 5000 µM
- MBC [2]: 78000 µM (≈ 41600 µg/mL)
- MIC [2]: 76 µM (≈ 40.5 µg/mL)
- MBC (MRSA ATCC 33591): 9800 µM (≈ 5230 µg/mL)
- MIC (MRSA ATCC 33591): 610 µM (≈ 325 µg/mL)

SMILES: O=C(Nc1ccc(Cl)c(C(F)(F)F)c1)Nc1cc(S(F)(F)(F)(F)F)ccc1Cl [EBP-37, 3-(4-chloro-3-(trifluoromethyl)phenyl)-1-(2-chloro-5-pentafluoro-λ^6-sulfanyl)urea]
- MBC [1]: > 5000 µM
- MIC [1]: > 5000 µM
- MBC (P. mirabilis ATCC 35659): 625 µM (≈ 297 µg/mL)
- MIC (P. mirabilis ATCC 35659): 625 µM (≈ 297 µg/mL)
- MBC [2]: 4900 µM (≈ 2330 µg/mL)
- MIC [2]: 1.2 µM (≈ 0.57 µg/mL)
- MBC (MRSA ATCC 33591): 40 µM (≈ 19 µg/mL)
- MIC (MRSA ATCC 33591): 8 µM (≈ 3.8 µg/mL)
- MBC [3]: 40 µM (≈ 19 µg/mL)
- MIC [3]: 8 µM (≈ 3.8 µg/mL)
- MBC ([4]; MRSA #1 clinical isolate): 1200 µM (≈ 570 µg/mL)
- MIC ([4]; MRSA #1 clinical isolate): 10 µM (≈ 4.75 µg/mL)
- MBC ([4]; MRSA #2 clinical isolate): 10 µM (≈ 4.75 µg/mL)
- MIC ([4]; MRSA #2 clinical isolate): < 2 µM
- MBC ([4]; MRSA #3 clinical isolate): 600 µM (≈ 285 µg/mL)
- MIC ([4]; MRSA #3 clinical isolate): 80 µM (≈ 38 µg/mL)
- MBC ([4]; MRSA #4 clinical isolate): 10 µM (≈ 4.75 µg/mL)
- MIC ([4]; MRSA #4 clinical isolate): < 2 µM
- MBC ([4]; MRSA #5 clinical isolate): 10 µM (≈ 4.75 µg/mL)
- MIC ([4]; MRSA #5 clinical isolate): 10 µM (≈ 4.75 µg/mL)
- MBC ([4]; MRSA #6 clinical isolate): < 2 µM
- MIC ([4]; MRSA #6 clinical isolate): < 2 µM
- MBC ([4]; MRSA #7 clinical isolate): 40 µM (≈ 19 µg/mL)
- MIC ([4]; MRSA #7 clinical isolate): 10 µM (≈ 4.75 µg/mL)
- MBC ([4]; MRSA #8 clinical isolate): 10 µM (≈ 4.75 µg/mL)
- MIC ([4]; MRSA #8 clinical isolate): < 2 µM
- MBC ([4]; MRSA #9 clinical isolate): 10 µM (≈ 4.75 µg/mL)
- MIC ([4]; MRSA #9 clinical isolate): 5 µM (≈ 2.38 µg/mL)
- MBC ([4]; MRSA #10 clinical isolate): 10 µM (≈ 4.75 µg/mL)
- MIC ([4]; MRSA #10 clinical isolate): < 2 µM

Further lines, with some results ahead:

- MIC [1]: > 5000 µM
- MIC (P. mirabilis ATCC 35659): > 5000 µM
SMILES: O=C(Nc1ccc(Cl)c(C(F)(F)F)c1)Nc1ccc2nnsc2c1 [A]
- MBC [1]: > 5000 µM
- MBC (P. mirabilis ATCC 35659): > 5000 µM

- MIC [1]: > 5000 µM
- MIC (P. mirabilis ATCC 35659): > 5000 µM
- MIC [2]: 9800 µM (≈ 4220 µg/mL)
SMILES: O=C(Nc1ccc(Cl)c(S(F)(F)(F)(F)F)c1)Nc1ccc2nnsc2c1 [EBP-25, 3-(1,2,3-benzothiadiazol-6-yl)-1-(4-chloro-3-pentafluoro-λ^6-sulfanyl)urea]
- MBC [1]: > 5000 µM
- MBC (P. mirabilis ATCC 35659): > 5000 µM
- MBC [2]: 78000 µM (≈ 33600 µg/mL)

- MIC [1]: > 5000 µM
- MIC (P. mirabilis ATCC 35659): > 5000 µM
- MIC [2]: 19 µM (≈ 8.82 µg/mL)
- MIC (MRSA ATCC 33591): 4.8 µM (≈ 2.23 µg/mL)
SMILES: O=C(Nc1ccc(S(F)(F)(F)(F)F)cc1)Nc1ccc(S(F)(F)(F)(F)F)cc1 [EBP-33, 1,3-bis(4-pentafluoro-λ^6-sulfanyl)urea]
- MBC [1]: > 5000 µM
- MBC (P. mirabilis ATCC 35659): > 5000 µM
- MBC [2]: 20000 µM (≈ 9290 µg/mL)
- MBC (MRSA ATCC 33591): 2400 µM (≈ 1110 µg/mL)

- MIC [1]: > 5000 µM
- MIC (P. mirabilis ATCC 35659): 625 µM (≈ 261 µg/mL)
- MIC [2]: 3.8 µM (≈ 1.59 µg/mL)
- MIC (MRSA ATCC 33591): 1.9 µM (≈ 0.793 µg/mL)
- MIC [3]: 0.2 µM (≈ 0.0834 µg/mL)
SMILES: O=C(Nc1ccc(Cl)c(C(F)(F)F)c1)Nc1ccc(Cl)c(C(F)(F)F)c1 [EBP-34, 1,3-di(4-chloro-3-(trifluoromethyl)phenyl)urea]
- MBC [1]: > 5000 µM
- MBC (P. mirabilis ATCC 35659): 625 µM (≈ 261 µg/mL)
- MBC [2]: 10 µM (≈ 4.17 µg/mL)
- MBC (MRSA ATCC 33591): 61 µM (≈ 25.4 µg/mL)
- MBC [3]: 10 µM (≈ 4.17 µg/mL)
- MBC ([4]; MRSA #1 clinical isolate): < 2 µM
- MIC ([4]; MRSA #1 clinical isolate): 600 µM (≈ 250 µg/mL)
- MBC ([4]; MRSA #2 clinical isolate): < 2 µM
- MIC ([4]; MRSA #2 clinical isolate): < 2 µM
- MBC ([4]; MRSA #3 clinical isolate): 80 µM (≈ 33.4 µg/mL)
- MIC ([4]; MRSA #3 clinical isolate): 80 µM (≈ 33.4 µg/mL)
- MBC ([4]; MRSA #4 clinical isolate): < 2 µM
- MIC ([4]; MRSA #4 clinical isolate): < 2 µM
- MBC ([4]; MRSA #5 clinical isolate): 10 µM (≈ 4.17 µg/mL)
- MIC ([4]; MRSA #5 clinical isolate): 10 µM (≈ 4.17 µg/mL)
- MBC ([4]; MRSA #6 clinical isolate): 10 µM (≈ 4.17 µg/mL)
- MIC ([4]; MRSA #6 clinical isolate): 10 µM (≈ 4.17 µg/mL)
- MBC ([4]; MRSA #7 clinical isolate): 10 µM (≈ 4.17 µg/mL)
- MIC ([4]; MRSA #7 clinical isolate): < 2 µM
- MBC ([4]; MRSA #8 clinical isolate): 5 µM (≈ 2.09 µg/mL)
- MIC ([4]; MRSA #8 clinical isolate): 5 µM (≈ 2.09 µg/mL)
- MBC ([4]; MRSA #9 clinical isolate): < 2 µM
- MIC ([4]; MRSA #9 clinical isolate): < 2 µM
- MBC ([4]; MRSA #10 clinical isolate): 10 µM (≈ 4.17 µg/mL)
- MIC ([4]; MRSA #10 clinical isolate): < 2 µM
